Data from US20220105058A1, “USE OF 3-O-SULFAMATE-16,16-DIMETHYL-D-HOMOEQUILENIN TO TREAT ONCOLOGICAL DISEASES” (priority 2018, published 2022).
Marks after values point to notes of the source that are not given here.

Columns and labels:
[1] = body weight and tolerability during the antitumor study
Procedure: The study medicament was administered i.g. using a metal atraumatic gavage (with the procedure corresponds to the oral route of administration in clinical settings). The medicament was administered in a single daily dose (20 mg/kg of body weight) and 5-fold daily dose of 100 mg/kg of body weight. Ex tempore solutions of the medicament for administration were prepared in olive oil (refined olive oil supplemented with unrefined extra virgin olive oil available under Global Village “Clasico” trademark, lot L:183351116, expiry date 26 Apr. 2020, BAIEO, Spain). The administered volume was 0.1 ml per 10 g of a mouse body weight (0.2 ml of a ready-to-use formulation for a mouse of 20 g). The medicament administration was started 24 hours after the randomization. The duration of the administration course was 27-28 days.
This dose corresponds to a human daily dose of 20 mg/kg.
The evaluation criteria included the clinical observation data, animals body weights, time of death (if applicable), tumor growth over time, pathomorphological examination data (verification of a neoplasm during autopsy, assessment of toxic effects by macroscopic presentation of changes in the internal organs).
The animals body weights were recorded before the first administration of the medicaments and then twice per week using a verified high-speed electronic laboratory balance Ohaus Scout Pro (USA) with a maximum load of 2000 g and a measurement step of 0.1 g.

[2] = test system: Breast tumors (BT) in female FBV/N mice transgenic for HER-2/neu; assay: antitumor activity in mice with HER-2/neu breast tumors; type: in vivo, FVB mice transgenic for HER-2/neu; conditions: for average total volume of tumors, % changes from baseline / average volume of tumors, % changes from baseline: 28 days
Source text: The age of animals at the beginning of the study was 21-41 weeks and weight was 25-30 g.
The control groups were given the olive oil (placebo).
TGI=(Vctrl−Vexp)/Vctrl×100(%),

In the case of `CC1(C)CC(=O)[C@@]2(C)CCc3c(ccc4cc(OS(N)(=O)=O)ccc34)[C@@H]2C1` [medicament, 3-O-sulfamate-16,16-dimethyl-D-homoequilenin], the “signs of toxic damage to internal organs at autopsy” value ([1]; end of the experiment) is reported as “No specific signs of toxic damage to internal organs were found”, the “clinical signs of toxicity” value ([1]; mouse, in vivo) is reported as “no clinical signs of toxicity being observed” and the “Average volume of new tumors at the end of observation period (M)” value ([2]; medicament 20 mg/kg) is reported as 0.15 cm^3. For the same compound, the “average total volume of tumors, % changes from baseline” value ([2]; medicament 20 mg/kg) was 106%, the “average volume of tumors, % changes from baseline” value ([2]; medicament 20 mg/kg) was 103% and the “TGI (average total tumor volume)” value ([2]; medicament 20 mg/kg, Day 0) was 25%. The “TGI (average tumor volume)” value ([2]; medicament 20 mg/kg, Day 0) was 8%, the “average total volume of tumors in mice (M)” value ([2]; medicament 20 mg/kg, Day 0) was 1.69 cm^3 and the “average volume of tumors (M)” value ([2]; medicament 20 mg/kg, Day 0) was 0.35 cm^3. The “relative change of the average total volume to that of Day − 1 (M)” value (“relative change” below) ([2]; medicament 20 mg/kg, Day 0) was 0%, the “TGI (average total tumor volume)” value ([2]; medicament 20 mg/kg, Day 7) was 36% and the “TGI (average tumor volume)” value ([2]; medicament 20 mg/kg, Day 7) was 22%. For the same compound, the “average total volume of tumors in mice (M)” value ([2]; medicament 20 mg/kg, Day 7) was 1.93 cm^3, the “average volume of tumors (M)” value ([2]; medicament 20 mg/kg, Day 7) was 0.39 cm^3 and the “relative change” value ([2]; medicament 20 mg/kg, Day 7) was 19%. For the same compound, the “TGI (average total tumor volume)” value ([2]; medicament 20 mg/kg, Day 14) was 36%, the “TGI (average tumor volume)” value ([2]; medicament 20 mg/kg, Day 14) was 21% and the “average total volume of tumors in mice (M)” value ([2]; medicament 20 mg/kg, Day 14) was 2.67* cm^3. The “average volume of tumors (M)” value ([2]; medicament 20 mg/kg, Day 14) was 0.55 cm^3, the “relative change” value ([2]; medicament 20 mg/kg, Day 14) was 64^a % and the “TGI (average total tumor volume)” value ([2]; medicament 20 mg/kg, Day 21) was 38%. For the same compound, the “TGI (average tumor volume)” value ([2]; medicament 20 mg/kg, Day 21) was 25%, the “average total volume of tumors in mice (M)” value ([2]; medicament 20 mg/kg, Day 21) was 3.15** cm^3 and the “average volume of tumors (M)” value ([2]; medicament 20 mg/kg, Day 21) was 0.64 cm^3. The “relative change” value ([2]; medicament 20 mg/kg, Day 21) was 91^aa %, the “TGI (average total tumor volume)” value ([2]; medicament 20 mg/kg, Day 28) was 40% and the “TGI (average tumor volume)” value ([2]; medicament 20 mg/kg, Day 28) was 27%. The “average total volume of tumors in mice (M)” value ([2]; medicament 20 mg/kg, Day 28) was 3.48**^a cm^3, the “average volume of tumors (M)” value ([2]; medicament 20 mg/kg, Day 28) was 0.71* cm^3 and the “relative change” value ([2]; medicament 20 mg/kg, Day 28) was 107*^aa %. For the same compound, the “Total number of new tumors” value ([2]; medicament 20 mg/kg, end of experiment) was 23, the “frequency of tumor stabilizations” value ([2]; medicament 20 mg/kg, end of observation) was 22% and the “Average volume of new tumors at the end of observation period (M)” value ([2]; medicament 100 mg/kg) was 0.12* cm^3. The “average total volume of tumors, % changes from baseline” value ([2]; medicament 100 mg/kg) was 59%, the “average volume of tumors, % changes from baseline” value ([2]; medicament 100 mg/kg) was 60% and the “TGI (average total tumor volume)” value ([2]; medicament 100 mg/kg, Day 0) was 25%. The “TGI (average tumor volume)” value ([2]; medicament 100 mg/kg, Day 0) was 8%, the “average total volume of tumors in mice (M)” value ([2]; medicament 100 mg/kg, Day 0) was 1.70 cm^3 and the “average volume of tumors (M)” value ([2]; medicament 100 mg/kg, Day 0) was 0.35 cm^3. The “relative change” value ([2]; medicament 100 mg/kg, Day 0) was 0%, the “TGI (average total tumor volume)” value ([2]; medicament 100 mg/kg, Day 7) was 41% and the “TGI (average tumor volume)” value ([2]; medicament 100 mg/kg, Day 7) was 26%. The “average total volume of tumors in mice (M)” value ([2]; medicament 100 mg/kg, Day 7) was 1.79 cm^3, the “average volume of tumors (M)” value ([2]; medicament 100 mg/kg, Day 7) was 0.37 cm^3 and the “relative change” value ([2]; medicament 100 mg/kg, Day 7) was 1^a %. The “TGI (average total tumor volume)” value ([2]; medicament 100 mg/kg, Day 14) was 45%, the “TGI (average tumor volume)” value ([2]; medicament 100 mg/kg, Day 14) was 31% and the “average total volume of tumors in mice (M)” value ([2]; medicament 100 mg/kg, Day 14) was 2.30* cm^3. The “average volume of tumors (M)” value ([2]; medicament 100 mg/kg, Day 14) was 0.48 cm^3 and the “relative change” value ([2]; medicament 100 mg/kg, Day 14) was 38^a %.
